# In PMC9750872, “Ras-mutant cancers are sensitive to small molecule inhibition of V-type ATPases in mice” (Nature biotechnology, 2022):
# Entries after “also recorded” stand apart in the source; their conditions may differ.
# Tests used:
# MEFs BRAFV600E = test: Cell proliferation of Ras-less MEFs expressing human KRAS/BRAF; settings: Mus musculus
# Method: (§6) Cell proliferation assays of stable cell lines treated with V-ATPase inhibitors 249C and BafA1, HCQ analog (DC661), KRASG12C inhibitor (AMG510) and autophagy inducer (CMA). For each bar, n = 3. Representative of 3 biological replicates (mean ± SD). Two-sided t-test with no adjustments for multiple comparisons.
# (§7) Logarithmically growing cells were plated in antibiotic-free medium supplemented with 2% fetal bovine serum at a density of 5,000 cells per well. The next day, cells were treated in triplicates with increasing doses of in-house small molecule inhibitor drugs and a DMSO vehicle control for 3 days and subsequently assessed for cell viability by measurement of ATP with CellTiter-Glo Luminescent Cell Viability Assay (Promega). Signal intensity was read on a Glomax™ 96 Microplate Luminometer (Promega) with GLOMAX software (version 1.9.3) and percent cell survival was calculated based on the reading of vehicle control cells set as 100% using Excel (2012) and GraphPad Prism (version 6)Each compound was tested a minimum of 2 times with n = 3. All cell proliferation assays (cancer cell lines or MEFs) were done in a similar way.
# DDR1 = DDR1 (Homo sapiens, UniProt Q08345); test: KINOMEscan Kd determination; assay type: binding; settings: 11-point serial dilution, top 30,000 nM
# Chain of DDR1 (Q08345 19-913): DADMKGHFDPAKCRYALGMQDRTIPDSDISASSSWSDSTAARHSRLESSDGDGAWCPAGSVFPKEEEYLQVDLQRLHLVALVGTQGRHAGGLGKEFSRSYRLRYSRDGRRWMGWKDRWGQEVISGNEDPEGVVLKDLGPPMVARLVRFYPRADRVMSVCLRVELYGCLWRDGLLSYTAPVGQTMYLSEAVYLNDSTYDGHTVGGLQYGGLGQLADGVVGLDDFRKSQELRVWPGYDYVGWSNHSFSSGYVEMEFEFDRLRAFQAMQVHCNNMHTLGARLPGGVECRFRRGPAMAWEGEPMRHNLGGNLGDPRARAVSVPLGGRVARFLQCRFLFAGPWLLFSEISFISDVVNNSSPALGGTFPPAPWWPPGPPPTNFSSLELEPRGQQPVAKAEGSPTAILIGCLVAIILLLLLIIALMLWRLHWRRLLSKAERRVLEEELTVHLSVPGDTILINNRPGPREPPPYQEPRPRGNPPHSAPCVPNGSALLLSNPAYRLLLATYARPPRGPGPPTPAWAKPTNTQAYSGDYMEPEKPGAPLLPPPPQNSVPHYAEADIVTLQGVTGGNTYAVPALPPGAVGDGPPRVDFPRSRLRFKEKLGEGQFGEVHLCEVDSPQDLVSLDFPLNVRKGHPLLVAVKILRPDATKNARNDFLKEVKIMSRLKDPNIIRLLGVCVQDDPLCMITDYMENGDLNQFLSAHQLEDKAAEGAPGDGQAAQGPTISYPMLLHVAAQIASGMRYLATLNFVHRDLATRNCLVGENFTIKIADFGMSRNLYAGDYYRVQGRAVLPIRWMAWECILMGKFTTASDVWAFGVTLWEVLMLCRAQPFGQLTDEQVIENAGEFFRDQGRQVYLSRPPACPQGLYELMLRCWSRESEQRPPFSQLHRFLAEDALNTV
# Description: (§1) The KINOMEscan™ Profiling Service consisting of 468 human kinases was used to assess 249C inhibitor activity to check for off-target effects as previously described.
# (§2) Supplementary Fi g u re 12: Compound 249C assessed for off-target effects using the KIN OME scanTM screening platform. (A) Selectivity (S-score) for 249C wher e the sco re is a qu antitative measu re o f compound selectivity against human kinases. It is calculate b y dividing the number of k inases that compounds bi nd to b y the total number of distinct kinases tested, excluding mutant variants (S = number of hits / number of assa ys). 1 hit out of >400 kinases is reported for test compound (249C) = 0.002. S(35) = number of non- mutant kinases with % ctrl <35/number of non- mutant kinases; (B) Kinome interaction map for 249C at 10,000 nM. Each red dot indicates a kinase found to bind, where larger dots indicate higher affinit y interactions.
# (§3) 1 Tyrosine Kinase (TK) out of >400 kinases ( created in TREEspotTM ) with low affinity. This is calculated using
# (§4) Dissociation constants (Kds) were determined using 249C at 30,000 nM, Hill slopes were set to - 1 and curves were fitted using a non- linear least square fit with the […]
# (§5) (1 picture or pasted object on this page, not shown here)
# DDR2 = DDR2 (Homo sapiens, UniProt Q16832); test: KINOMEscan Kd determination; assay type: binding; settings: 11-point serial dilution, top 30,000 nM
# Chain of DDR2 (Q16832 22-855): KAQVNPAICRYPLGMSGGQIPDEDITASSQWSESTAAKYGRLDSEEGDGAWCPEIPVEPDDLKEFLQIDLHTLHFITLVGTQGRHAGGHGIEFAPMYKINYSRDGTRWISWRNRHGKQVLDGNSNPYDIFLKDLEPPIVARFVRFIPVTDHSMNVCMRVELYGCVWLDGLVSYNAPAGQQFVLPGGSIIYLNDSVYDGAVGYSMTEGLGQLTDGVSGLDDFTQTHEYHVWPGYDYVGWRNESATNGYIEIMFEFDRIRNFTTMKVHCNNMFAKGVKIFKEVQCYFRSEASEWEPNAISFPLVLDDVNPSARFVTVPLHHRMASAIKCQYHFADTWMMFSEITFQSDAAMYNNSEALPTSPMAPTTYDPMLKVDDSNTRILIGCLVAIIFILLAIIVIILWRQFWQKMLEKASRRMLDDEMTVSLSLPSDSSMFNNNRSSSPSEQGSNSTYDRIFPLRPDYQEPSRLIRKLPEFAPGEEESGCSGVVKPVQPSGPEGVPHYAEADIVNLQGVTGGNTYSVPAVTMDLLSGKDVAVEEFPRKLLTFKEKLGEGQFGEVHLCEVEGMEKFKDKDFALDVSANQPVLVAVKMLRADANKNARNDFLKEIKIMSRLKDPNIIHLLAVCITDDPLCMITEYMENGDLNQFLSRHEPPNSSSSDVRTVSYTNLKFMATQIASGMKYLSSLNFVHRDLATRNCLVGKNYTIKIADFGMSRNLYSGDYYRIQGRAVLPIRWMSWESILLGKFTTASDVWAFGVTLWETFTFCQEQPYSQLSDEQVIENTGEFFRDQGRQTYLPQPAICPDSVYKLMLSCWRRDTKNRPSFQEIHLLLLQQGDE
# Description: as §1, §2, §3, §4, §5
# MEFs KRASWT = test: Cell proliferation of Ras-less MEFs expressing human KRAS/BRAF; settings: Mus musculus
# Method: as §6, §7
# [1] = target: T1, mammalian V-ATPase purified from pig kidneys (Sus scrofa, UniProt Q9TVC1); test: Biochemical V-ATPase (ATP hydrolysis) assay; settings: concentrations as low as 1 μM
# T1 construct: the entire V-ATPase complex (800 kDa) was purified as described previously from porcine kidneys; from tissue; host or cells: porcine kidney
# T1 sequence (Q9TVC1 whole entry): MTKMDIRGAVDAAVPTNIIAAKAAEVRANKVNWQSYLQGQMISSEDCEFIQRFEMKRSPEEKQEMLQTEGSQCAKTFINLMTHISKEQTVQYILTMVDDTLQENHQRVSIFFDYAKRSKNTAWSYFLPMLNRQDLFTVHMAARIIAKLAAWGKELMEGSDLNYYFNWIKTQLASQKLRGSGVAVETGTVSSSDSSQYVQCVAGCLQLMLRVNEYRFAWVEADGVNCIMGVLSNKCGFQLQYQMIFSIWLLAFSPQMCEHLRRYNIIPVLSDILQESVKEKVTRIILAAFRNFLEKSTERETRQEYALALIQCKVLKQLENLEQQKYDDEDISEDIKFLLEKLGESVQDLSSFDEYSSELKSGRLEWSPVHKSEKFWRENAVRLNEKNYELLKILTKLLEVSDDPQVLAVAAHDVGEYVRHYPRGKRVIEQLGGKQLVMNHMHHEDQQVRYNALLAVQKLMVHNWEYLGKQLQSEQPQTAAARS
# T1 sequence (Q29048 whole entry partner): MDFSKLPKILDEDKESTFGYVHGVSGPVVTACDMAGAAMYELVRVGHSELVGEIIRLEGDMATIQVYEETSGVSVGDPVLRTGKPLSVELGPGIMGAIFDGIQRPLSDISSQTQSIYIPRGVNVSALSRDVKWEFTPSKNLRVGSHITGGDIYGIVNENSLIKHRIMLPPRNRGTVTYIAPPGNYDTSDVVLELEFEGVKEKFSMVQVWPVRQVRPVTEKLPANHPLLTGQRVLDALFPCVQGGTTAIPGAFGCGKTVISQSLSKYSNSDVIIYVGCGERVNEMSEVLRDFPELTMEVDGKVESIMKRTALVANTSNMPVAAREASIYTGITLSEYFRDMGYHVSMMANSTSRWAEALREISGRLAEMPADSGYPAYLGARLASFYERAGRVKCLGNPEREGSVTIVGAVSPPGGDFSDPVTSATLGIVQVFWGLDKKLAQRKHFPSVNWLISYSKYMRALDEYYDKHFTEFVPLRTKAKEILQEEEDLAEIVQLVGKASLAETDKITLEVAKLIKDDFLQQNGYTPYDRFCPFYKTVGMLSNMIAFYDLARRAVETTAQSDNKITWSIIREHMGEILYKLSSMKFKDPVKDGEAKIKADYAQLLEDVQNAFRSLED
# Method: V-ATPase was purified as described previously from yeast[82] using the detergent dodecylmaltoside and porcine kidney[83] using the detergent glycol-diosgenin. ATPase assays with purified V-ATPase were performed as described previously. 249C (mammalian: 0.1, 1, 10, 100 μM and yeast: 5, 10 and 100 μM) or BafA1 (1 μM) were added to the reaction and compared with a negative control to which only DMSO was added. Enzyme-coupled ATPase biochemical activity assays were performed in a 96-well plate as described previously.
# [2] = test system: V-ATPase-dependent proton transport in HEK293T cells; test: Proton pumping assay, FITC-Dextran-loaded lysosomes; assay type: cell-based, human; settings: 1 h treatment
# Description: Figure 4. […] (A) Model of the reversible assembly of V-ATPase. Cytosolic V1 subunits are depicted in blue and membrane Vo subunits in purple. Upon V-ATPase assembly, ATP is hydrolyzed to ADP accompanied by proton (H^+) pumping and luminal acidification (decrease in pH) (Created with BioRender). […] The amount of subunit B2 present in the membrane fraction indicates the amount of assembled V-ATPase. A representative Western blot is presented. […] Cells were mechanically lysed, and a fraction containing FITC-Dextran-loaded lysosomes was isolated by sedimentation centrifugation. Fluorescence was measured over time to assess pH-dependent quenching following addition of 1 mM magnesium-ATP (predetermined). […] Representative of 5 individual experiments with n = 3 for each is presented (mean ± SD) (D) Mammalian V-ATPase activity measured in the absence and presence of 1 μM 249C and 1 μM BafA1. Data shown are mean ± SD; n = 3. […]
# 4 × 10^6 HEK 293T cells were plated in 10-cm plates. […] Sample fluorescence was excited at 490 nm, and emission fluorescence at 520 nm was measured continuously in BioTek plate reader (Synergy) using Gen5 software (version 3.05). After initial fluorescence stabilization, 1 mM ATP and 2 mM MgCl2 were added to initiate ATPase activity and proton pumping into the lysosomes, which causes quenching of FITC in the lysosomal lumen. […]
smiles,measurement,setting,value
CN1CCOC(CNC(=O)C2(C)C(c3ccc(Cl)o3)C(c3ccc(F)cc3F)=NN2c2ccc(F)cc2F)C1 (stereo not drawn) [Compound 249C],IC50,MEFs BRAFV600E,110 nM
same,Kd,DDR1,5.4 µM
same,Kd,DDR2,16 µM
same,IC50,MEFs KRASWT,1250 nM
same,ATP hydrolysis of intact mammalian V-ATPase,[1],blocked ATP hydrolysis
same,V-ATPase-dependent proton transport (ATP-dependent fluorescence quenching),[2],inhibited V-ATPase-dependent proton transport; also recorded: ATP-dependent fluorescence quenching was not observed
